This is an account of results in patent US6716833B2, “Acetylenic α-amino acid-based sulfonamide hydroxamic acid tace inhibitors” (priority 1999, dated 2004).

Where a name gives a salt, the structure may show the parent alone. Read-outs that look alike come from different tables or passages of the source.

Holding throughout (type): biochemical
In one test the target is T1, MMP-1 (Homo sapiens, UniProt P03956).
T1 sequence (P03956 100-469): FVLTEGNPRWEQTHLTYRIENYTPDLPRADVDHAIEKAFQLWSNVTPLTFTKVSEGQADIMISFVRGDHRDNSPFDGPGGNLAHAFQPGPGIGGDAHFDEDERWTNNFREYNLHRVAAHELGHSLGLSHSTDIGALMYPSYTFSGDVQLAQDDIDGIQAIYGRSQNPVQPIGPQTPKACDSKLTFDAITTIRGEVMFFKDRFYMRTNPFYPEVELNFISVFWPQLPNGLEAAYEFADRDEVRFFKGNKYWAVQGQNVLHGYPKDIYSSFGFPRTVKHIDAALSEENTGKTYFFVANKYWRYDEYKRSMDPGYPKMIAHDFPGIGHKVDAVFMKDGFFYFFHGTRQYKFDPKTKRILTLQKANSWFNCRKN
Put plainly: MMP-1 inhibition (thiopeptide or fluorescent peptide substrate). Conditions: read-out: MMP-1 IC50.

The target in test [1] is TNF-α converting enzyme (TACE) (Homo sapiens, UniProt P78536). Put plainly: TACE inhibition (fluorescent peptidyl substrate). As to conditions: read-out: TACE IC50.
The next test concerns the target MMP-9 (Homo sapiens, UniProt P14780). Put plainly: MMP-9 inhibition (thiopeptide or fluorescent peptide substrate). Conditions: read-out: MMP-9 IC50.
For the next test, the target named is MMP-13 (Homo sapiens, UniProt P45452). The experiment in a line: MMP-13 inhibition (thiopeptide or fluorescent peptide substrate).
[2] abbreviates: Table 10, read-out: MMP-13 IC50.

The IC50 is the concentration at which inhibition is half-maximal.

TNF-α converting enzyme (TACE), sequence (P78536 215-824, species assumed): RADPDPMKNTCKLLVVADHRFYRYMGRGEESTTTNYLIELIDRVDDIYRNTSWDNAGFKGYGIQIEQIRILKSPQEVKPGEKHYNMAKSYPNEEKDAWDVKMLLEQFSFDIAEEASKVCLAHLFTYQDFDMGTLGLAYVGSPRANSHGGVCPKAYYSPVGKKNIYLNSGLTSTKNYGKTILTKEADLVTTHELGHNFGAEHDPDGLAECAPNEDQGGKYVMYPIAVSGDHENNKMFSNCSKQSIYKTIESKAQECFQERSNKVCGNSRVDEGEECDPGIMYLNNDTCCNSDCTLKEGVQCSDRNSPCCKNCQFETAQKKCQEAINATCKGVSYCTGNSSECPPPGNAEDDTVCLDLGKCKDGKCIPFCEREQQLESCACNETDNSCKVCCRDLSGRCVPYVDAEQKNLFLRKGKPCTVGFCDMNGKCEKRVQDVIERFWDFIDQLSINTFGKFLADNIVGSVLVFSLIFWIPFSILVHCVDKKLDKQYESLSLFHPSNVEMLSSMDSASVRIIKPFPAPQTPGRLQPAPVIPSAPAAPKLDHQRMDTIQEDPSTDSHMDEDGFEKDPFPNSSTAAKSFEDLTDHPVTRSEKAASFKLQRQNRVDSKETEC
MMP-9, sequence (P14780 94-707): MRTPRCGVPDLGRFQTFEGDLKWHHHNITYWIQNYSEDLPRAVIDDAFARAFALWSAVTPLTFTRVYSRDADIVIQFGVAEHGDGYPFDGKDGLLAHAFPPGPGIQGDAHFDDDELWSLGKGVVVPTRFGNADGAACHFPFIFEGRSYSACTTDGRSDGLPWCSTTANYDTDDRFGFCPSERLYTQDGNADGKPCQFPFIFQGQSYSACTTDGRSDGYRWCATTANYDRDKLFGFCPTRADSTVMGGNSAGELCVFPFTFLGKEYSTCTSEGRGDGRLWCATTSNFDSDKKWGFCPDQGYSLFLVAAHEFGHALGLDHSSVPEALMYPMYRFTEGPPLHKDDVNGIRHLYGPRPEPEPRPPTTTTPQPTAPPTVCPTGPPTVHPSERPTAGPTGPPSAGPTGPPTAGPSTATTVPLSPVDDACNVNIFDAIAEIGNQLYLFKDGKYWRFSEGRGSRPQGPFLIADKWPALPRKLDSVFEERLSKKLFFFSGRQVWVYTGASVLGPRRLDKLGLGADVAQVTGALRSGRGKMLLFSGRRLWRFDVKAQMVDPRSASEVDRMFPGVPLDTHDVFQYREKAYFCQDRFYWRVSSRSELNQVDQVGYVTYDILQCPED

Consider `CC1(C)SCCN(S(=O)(=O)c2ccc(OCC#CCCOC3CCCCO3)cc2)C1C(=O)NO` (stereo not shown) [Example 243, N-Hydroxy-2,2-dimethyl-4-[(4-{[5-(tetrahydro-2H-pyran-2-yloxy)-2-pentynyl]oxy}phenyl)sulfonyl]-3-thiomorpholine Carboxamide], for which the IC50 on MMP-1 (Table 10) came out at 194 nM; in test [1] (Table 10), 87 nM; at MMP-9 (Table 10), 178 nM; on MMP-13 (setting [2]), 4.1 nM.

`CC#CCOc1ccc(S(=O)(=O)N[C@@H](C(=O)NO)c2ccc(OCCN)cc2)cc1` [Example 200, (2R)-2-[4-(2-Aminoethoxy)phenyl]-2-({[4-(2-butynyloxy)phenyl]sulfonyl}amino)-N-hydroxyethanamide]: the concentration for half-maximal inhibition (IC50) at MMP-1 was roughly 10000 nM; in test [1], 15 nM; on MMP-9 it was 518 nM; at MMP-13 (read-out: MMP-13 IC50) it was 176 nM.

On to `CC#CCOc1ccc(S(=O)(=O)N(CCN2CCOCC2)C(C(=O)NO)C(C)C)cc1` (stereo not shown) [Example 123, 2-[[[4-(2-Butynyloxy)phenyl]sulfonyl][2-(4-morpholinyl)ethyl]amino]-N-hydroxy-3-methylbutanamide], for which the IC50 is 244 nM at MMP-1, 102 nM in test [1], 628 nM at MMP-9 and 89 nM at MMP-13 (read-out: MMP-13 IC50).

As for `CC#CCOc1ccc(S(=O)(=O)N2CCN(Cc3cccnc3)CC2C(=O)NO)cc1` (stereo not shown) [Example 234, 1-(4-but-2-ynyloxy-Benzenesulfonyl)-4-pyridin-3-ylmethyl-piperazine-2-carboxylic Acid Hydroxyamide], the IC50 on MMP-1 is 3200 nM; in test [1] it was 28 nM; at MMP-9 it was 108 nM; against MMP-13 (MMP-13 IC50) it was 49 nM.

As for `CC#CCOc1ccc(S(=O)(=O)N(CC(C)C)C(C(=O)NO)C(C)C)cc1` (stereo not shown) [Example 113, 2-[(4-but-2-ynyloxy-Benzenesulfonyl)-isobutyl-amino]-N-hydroxy-3-methyl-butyramide], the IC50 was determined as 299 nM on MMP-1, 107 nM in test [1], 918 nM on MMP-9 and 309 nM at MMP-13 (read-out: MMP-13 IC50).

`CC#CCOc1ccc(S(=O)(=O)N2CCN(C(=O)CN)CC2C(=O)NO)cc1` (stereo not shown) [Example 230, 4-Aminoacetyl-1-(4-but-2-ynyloxy-benzenesulfonyl)-piperazine-2-carboxylic Acid Hydroxyamide]: the concentration for half-maximal inhibition (IC50) at MMP-1 stood at 8500 nM; in test [1], 127 nM; at MMP-9, 1230 nM; at MMP-13 (read-out: MMP-13 IC50) it was 410 nM.

`CC#CCOc1ccc(S(=O)(=O)N[C@@H](C(=O)NO)c2ccc(OCCNC(C)=O)cc2)cc1` [Example 201, (2R)-2-{4-[2-(Acetylamino)ethoxy]phenyl}-2-({[4-(2-butynyloxy)phenyl]sulfonyl}amino)-N-hydroxyethanamide]: the IC50 was roughly 10000 nM at MMP-1, 9.4 nM in test [1], 569 nM at MMP-9 and 73 nM at MMP-13 (read-out: MMP-13 IC50).

Take `CC#CCOc1ccc(S(=O)(=O)N2CCN(C(=O)Nc3ccc(OC)cc3)CC2C(=O)NO)cc1` (stereo not shown) [Example 221, 4-{[4-(2-Butynyloxy)phenyl]sulfonyl}-N-3-hydroxy-N-1-(4-methoxyphenyl)-1,3-piperazinedicarboxamide]: the IC50 turned out to be 1510 nM at MMP-1, 69 nM in test [1], 576 nM at MMP-9 and 182 nM at MMP-13 (read-out: MMP-13 IC50).

For `CC1(C)SCCN(S(=O)(=O)c2ccc(OCC#CCCCO)cc2)C1C(=O)NO` (stereo not shown) [Example 249, N-Hydroxy-4-({4-[(6-hydroxy-2-hexynyl)oxy]phenyl}sulfonyl)-2,2-dimethyl-3-thiomorpholine Carboxamide], the half-maximal inhibitory concentration (IC50) is 159 nM at MMP-1 (Table 10), 40 nM in test [1] (Table 10), 377 nM at MMP-9 (Table 10) and 86 nM at MMP-13 (setting [2]).

For the molecule `CC#CCOc1ccc(S(=O)(=O)N2CCN(C(=O)N3CCOCC3)CC2C(=O)NO)cc1` (stereo not shown) [Example 215, 1-(4-but-2-ynyloxy-Benzenesulfonyl)-4-(morpholine-4-carbonyl)-piperazine-2-carboxylic Acid Hydroxyamide], the IC50 came to 695 nM on MMP-1, 35 nM in test [1], 60 nM at MMP-9 and 39 nM at MMP-13 (read-out: MMP-13 IC50).

Regarding `CC#CCOc1ccc(S(=O)(=O)N(CCCCN2CCN(C)CC2)C(C(=O)NO)C(C)C)cc1` (stereo not shown) [Example 122, 2-{{[4-(2-Butynyloxy)phenyl]sulfonyl}[4-(4-methyl-1-piperazinyl)butyl]amino}-N-hydroxy-3-methylbutanamide], the IC50 at MMP-1 is 86 nM; in test [1], 128 nM; on MMP-9, 135 nM; on MMP-13 (read-out: MMP-13 IC50), 50 nM.

Take `CC#CCOc1ccc(S(=O)(=O)N(C)C(C(=O)NO)c2ccc(OCCCN)cc2)cc1` (stereo not shown) [Example 188, 2-[4-(3-Aminopropoxy)phenyl]-2-[{[4-(2-butynyloxy)phenyl]sulfonyl}(methyl)amino]-N-hydroxyacetamide]: the IC50 is 469 nM on MMP-1, 25 nM in test [1], 48 nM on MMP-9 and 41 nM at MMP-13 (read-out: MMP-13 IC50).

In the case of `CC#CCOc1ccc(S(=O)(=O)N(C)C(C(=O)NO)c2ccc(OCCN3CCCC3)cc2)cc1` (stereo not shown) [Example 183, 2-[{[4-(2-Butynyloxy)phenyl]sulfonyl}(methyl)amino]-N-hydroxy-2-{4-[2-(1-pyrrolidinyl)ethoxy]phenyl}acetamide], the IC50 amounted to 497 nM on MMP-1, 40 nM in test [1], 55 nM at MMP-9 and 42 nM on MMP-13 (read-out: MMP-13 IC50).

With `CC#CCOc1ccc(S(=O)(=O)N(C)C(C(=O)NO)C2CCCCC2)cc1` (stereo not shown) [Example 115, 2-[(4-but-2-ynyloxy-Benzenesulfonyl)-methyl-amino]-2-cyclohexyl-N-hydroxy-acetamide], the IC50 at MMP-1 is 94 nM; in test [1] it was 31 nM; at MMP-9, 14 nM; on MMP-13 (read-out: MMP-13 IC50), 6.6 nM.

As to `CC#CCOc1ccc(S(=O)(=O)N2CCN(Cc3ccc(Br)cc3)CC2C(=O)NO)cc1` (stereo not shown) [Example 233, 4-(4-Bromo-benzyl)-1-(4-but-2-ynyloxy-benzenesulfonyl)-piperazine-2-carboxylic Acid Hydroxyamide], the IC50 at MMP-1 was 2830 nM; in test [1], 184 nM; at MMP-9, 69 nM; at MMP-13 (read-out: MMP-13 IC50), 55 nM.

Regarding `CC#CCOc1ccc(S(=O)(=O)N(C)C(C(=O)NO)C(C)(C)SCCN2CCOCC2)cc1` (stereo not shown) [Example 140, 2-({[4-(2-Butynyloxy)phenyl]sulfonyl)(methyl)amino]-N-hydroxy-3 Methyl-3-[(2(4-morpholinylethyl)sulfanyl]-butanamide Hydrochloride], the IC50 at MMP-1 stood at 45 nM; in test [1], 86 nM; at MMP-9, 103 nM; on MMP-13 (read-out: MMP-13 IC50), 9.2 nM.

On to `CC#CCOc1ccc(S(=O)(=O)N(C)C(C(=O)NO)c2ccc(OCCN)cc2)cc1` (stereo not shown) [Example 181, 2-[4-(2-Aminoethoxy)phenyl]-2-[{[4-(2-butynyloxy)phenyl]sulfonyl}(methyl)amino]-N-hydroxyacetamide], for which the IC50 on MMP-1 was 645 nM; in test [1] it was 16 nM; at MMP-9, 26 nM; at MMP-13 (read-out: MMP-13 IC50) it was 24 nM.

As to `CC#CCOc1ccc(S(=O)(=O)N2CCN(C(C)=O)CC2C(=O)NO)cc1` (stereo not shown) [Example 224, 4-Acetyl-1-(4-but-2-ynyloxy-benzenesulfonyl)-piperazine-2-carboxylic Acid Hydroxyamide], the IC50 at MMP-1 amounted to 357 nM; in test [1], 13 nM; on MMP-9, 88 nM; at MMP-13 (read-out: MMP-13 IC50), 22 nM.

`CC#CCOc1ccc(S(=O)(=O)N(CCCCN(CC)CC)C(C(=O)NO)C(C)C)cc1` (stereo not shown) [Example 121, 2-{{[4-(2-Butynyloxy)phenyl]sulfonyl}[4-(diethylamino)butyl]amino}-N-hydroxy-3-methylbutanamide]: the IC50 at MMP-1 worked out at 120 nM; in test [1] it was 177 nM; at MMP-9, 256 nM; on MMP-13 (read-out: MMP-13 IC50), 114 nM.

On to `CC#CCOc1ccc(S(=O)(=O)N(CC#CCN2CCN(C)CC2)C(C(=O)NO)C(C)C)cc1` (stereo not shown) [Example 125, 2-{{[4-(2-Butynyloxy)phenyl]sulfonyl}[4-(4-methyl-1-piperazinyl)-2-butynyl]amino}-N-hydroxy-3-methylbutanamide], for which the IC50 on MMP-1 turned out to be 505 nM; in test [1] it was 108 nM; at MMP-9, 846 nM; on MMP-13 (read-out: MMP-13 IC50), 151 nM.

Take `CC#CCOc1ccc(S(=O)(=O)N2CCN(C(=O)Nc3cc(Cl)cc(Cl)c3)CC2C(=O)NO)cc1` (stereo not shown) [Example 223, 4-{[4-(2-Butynyloxy)phenyl]sulfonyl}-N-1-(3,5-dichlorophenyl)-N-3-hydroxy-1,3-piperazinedicarboxamide]: the half-inhibitory concentration (IC50) amounted to 1720 nM on MMP-1, 83 nM in test [1], 642 nM on MMP-9 and 153 nM on MMP-13 (read-out: MMP-13 IC50).

Regarding `CC1(C)SCCN(S(=O)(=O)c2ccc(OCC#CCCCN)cc2)[C@H]1C(=O)NO` [Example 251, (3S)-4-({4-[(6-Amino-2-hexynyl)oxy]phenyl}sulfonyl)-N-hydroxy-2,2-dimethyl-3-thiomorpholine Carboxamide], the IC50 turned out to be 226 nM at MMP-1 (Table 10), 28 nM in test [1] (Table 10), 28 nM on MMP-9 (Table 10) and 8.7 nM on MMP-13 (setting [2]).
